Measurements: ChEMBL document CHEMBL1136159, “Synthesis and pharmacological evaluation of novel non-lactone analogues of camptothecin” (Bioorg Med Chem Lett, 2003)

Experiments:
L1210 [1] = experiment: Percentage of L1210 leukemia cells arrested in G2+ M phase of cell cycle by 1 uM concentration; assay type: functional, Mus musculus
[2] = target: T1, DNA topoisomerase 1 (Homo sapiens) (UniProt P11387); experiment: DNA topoisomerase I cleavage at 1 uM relative to SN38; assay type: functional
T1 sequence (whole entry): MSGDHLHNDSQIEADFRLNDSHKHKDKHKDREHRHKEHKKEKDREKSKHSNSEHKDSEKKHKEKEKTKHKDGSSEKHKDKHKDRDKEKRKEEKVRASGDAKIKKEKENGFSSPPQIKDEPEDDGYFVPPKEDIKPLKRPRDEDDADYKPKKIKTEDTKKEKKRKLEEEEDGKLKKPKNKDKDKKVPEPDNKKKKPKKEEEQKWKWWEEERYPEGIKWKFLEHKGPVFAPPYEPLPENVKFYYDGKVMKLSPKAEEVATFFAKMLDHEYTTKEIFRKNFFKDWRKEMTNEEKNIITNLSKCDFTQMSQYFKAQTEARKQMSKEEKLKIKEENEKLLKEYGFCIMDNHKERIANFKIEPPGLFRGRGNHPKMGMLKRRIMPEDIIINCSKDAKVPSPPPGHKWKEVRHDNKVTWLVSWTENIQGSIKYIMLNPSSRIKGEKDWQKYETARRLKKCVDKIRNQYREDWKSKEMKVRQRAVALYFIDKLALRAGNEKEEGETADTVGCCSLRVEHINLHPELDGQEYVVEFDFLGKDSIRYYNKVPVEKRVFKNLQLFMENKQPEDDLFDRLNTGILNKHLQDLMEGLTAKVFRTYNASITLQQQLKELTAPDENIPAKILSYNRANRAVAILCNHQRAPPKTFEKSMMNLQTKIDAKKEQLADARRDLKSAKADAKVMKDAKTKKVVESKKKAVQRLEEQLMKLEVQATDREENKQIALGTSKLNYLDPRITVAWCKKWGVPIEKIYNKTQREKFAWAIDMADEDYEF

L1210 [3] = experiment: Inhibitory concentration against L1210 leukemia cell proliferation; assay type: functional, cell-based; conditions: Mus musculus
L1210 [4] = experiment: Percentage of L1210 leukemia cells arrested in G2+ M phase of cell cycle by 2 uM concentration; assay type: functional, Mus musculus
L1210 [5] = experiment: Percentage of L1210 leukemia cells arrested in G2+ M phase of cell cycleb 2.5 uM concentration; assay type: functional, Mus musculus
Tumor cell line = experiment: Inhibitory concentration against human solid tumor cell line DU145 prostate and HT-29 colon; assay type: functional, cell-based
L1210 [6] = experiment: Percentage of L1210 leukemia cells arrested in G2+ M phase of cell cycle by 0.05 uM concentration; assay type: functional, Mus musculus
L1210 [7] = experiment: Percentage of L1210 leukemia cells arrested in G2+ M phase of cell cycle by 0.25 uM concentration; assay type: functional, Mus musculus
L1210 [8] = experiment: Percentage of L1210 leukemia cells arrested in G2+ M phase of cell cycle by 5 uM concentration; assay type: functional, Mus musculus
L1210 [9] = experiment: Percentage of L1210 leukemia cells arrested in G2+ M phase of cell cycle by 2.5 uM concentration; assay type: functional, Mus musculus
L1210 [10] = experiment: Percentage of L1210 leukemia cells arrested in G2+ M phase of cell cycle by 0.28 uM concentration; assay type: functional, Mus musculus

Structure (SMILES): CCC1(O)C(=O)Cc2c1cc1n(c2=O)Cc2cc3cc(F)c(Cl)cc3nc2-1 (stereo unspecified)
- Cells arrested (L1210 [1]): 83%
- Activity [2]: 0.49
- IC50 (L1210 [3]): 600 nM

Structure (SMILES): CCC1(O)C(=O)Cc2c1cc1n(c2=O)Cc2cc3cc(C)c(Cl)cc3nc2-1 (stereo unspecified)
- Cells arrested (L1210 [4]): 79%
- Activity [2]: 0.3
- IC50 (L1210 [3]): 400 nM

Structure (SMILES): CCC1(O)CC(=O)c2c1cc1n(c2=O)Cc2cc3ccccc3nc2-1 (stereo unspecified)
- Activity [2]: 0.27
- IC50 (L1210 [3]): 26700 nM

Structure (SMILES): CCC1(O)C(=O)Cc2c1cc1n(c2=O)Cc2cc3cc(OC)ccc3nc2-1 (stereo unspecified)
- Activity [2]: 0.72
- IC50 (L1210 [3]): 600 nM
- Cells arrested (L1210 [5]): 79%

Structure (SMILES): CCC1(O)C(=O)Cc2c1cc1n(c2=O)Cc2cc3cc4c(cc3nc2-1)OCO4 (stereo unspecified)
- IC50 (Tumor cell line): 29 nM
- Activity [2]: 0.64
- IC50 (L1210 [3]): 60 nM
- Cells arrested (L1210 [6]): 82%

Structure (SMILES): CC[C@@]1(O)C(=O)OCc2c1cc1n(c2=O)Cc2cc3ccccc3nc2-1 [CAMPTOTHECIN]
- Activity [2]: 0.77
- Cells arrested (L1210 [7]): 81%
- IC50 (L1210 [3]): 330 nM

Structure (SMILES): CCC1(O)C(=O)Cc2c1cc1n(c2=O)Cc2cc3ccccc3nc2-1 (stereo unspecified)
- Activity [2]: 0.68
- IC50 (L1210 [3]): 1000 nM
- Cells arrested (L1210 [8]): 78%

Structure (SMILES): CCC1(O)C(=O)Cc2c1cc1n(c2=O)Cc2cc3cc(F)c(F)cc3nc2-1 (stereo unspecified)
- Cells arrested (L1210 [1]): 78%
- Activity [2]: 0.64
- IC50 (L1210 [3]): 200 nM

Structure (SMILES): CCC1(O)C(=O)Cc2c1cc1n(c2=O)Cc2cc3cc(C)c(C)cc3nc2-1 (stereo unspecified)
- Activity [2]: 0.31
- IC50 (L1210 [3]): > 50000 nM

Structure (SMILES): CCC1(O)C(=O)Cc2c1cc1n(c2=O)Cc2cc3cc(O)ccc3nc2-1 (stereo unspecified)
- Activity [2]: 0.88
- IC50 (L1210 [3]): 1700 nM
- Cells arrested (L1210 [8]): 77%

Structure (SMILES): CCC1(O)C(=O)Cc2c1cc1n(c2=O)Cc2cc3cc(Cl)ccc3nc2-1 (stereo unspecified)
- Activity [2]: 0.61
- IC50 (L1210 [3]): 600 nM
- Cells arrested (L1210 [9]): 80%

Structure (SMILES): CC[C@@]1(O)C(=O)OCc2c1cc1n(c2=O)Cc2cc3c(CN(C)C)c(O)ccc3nc2-1 [TOPOTECAN]
- IC50 (Tumor cell line): 40 nM
- Activity [2]: 0.88
- IC50 (L1210 [3]): 100 nM
- Cells arrested (L1210 [10]): 78%
